Laboratory results reported in BindingDB's records for doi:10.7270/Q26H4FT9 (Nmmlsc, 2009).

Target: Cell division control protein 42 homolog (Homo sapiens, UniProt P60953)
Test: Cdc42 activated mutant GTP-binding inhibitors, SAR follow-up, biochemical, bead-based multiplex flow cytometry, additional SAR set (AID 2021)

Chain of Cell division control protein 42 homolog (P60953 whole entry): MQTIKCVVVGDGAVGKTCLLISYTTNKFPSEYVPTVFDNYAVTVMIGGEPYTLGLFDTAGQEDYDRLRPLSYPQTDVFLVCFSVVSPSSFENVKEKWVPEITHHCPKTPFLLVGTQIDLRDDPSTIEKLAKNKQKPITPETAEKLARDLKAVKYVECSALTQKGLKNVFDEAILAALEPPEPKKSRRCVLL

Row | SMILES | EC50
1 | O=C1Nc2c(Cl)cccc2C1=C1Nc2ccccc2C1=O | 30 µM
2 | O=C1Nc2c(Br)cccc2C1=C1Nc2ccccc2C1=O | 30 µM
3 | O=C1Nc2c(F)cccc2C1=C1Nc2ccccc2C1=O | 30 µM
4 | O=C1NC(=O)/C(=C2/C(=O)Nc3ccccc32)N1 | 5.26 µM
5 | O=C1Nc2ccc(Br)cc2C1=C1Nc2ccccc2C1=O | 30 µM
6 | O=C1Nc2ccccc2/C1=C1/Nc2ccccc2C1=O [2-[(3Z)-2-oxo-2,3-dihydro-1H-indol-3-ylidene]-2,3-dihydro-1H-indol-3-one] | 30 µM
7 | O=C1N=c2ccccc2=C1c1[nH]c2ccccc2c1NO [3-[3-(hydroxyamino)-1H-indol-2-yl]-2-indolone] | 30 µM
8 | O=C1N=c2ccc(Br)cc2=C1c1[nH]c2ccccc2c1NO [5-bromanyl-3-[3-(oxidanylamino)-1H-indol-2-yl]indol-2-one] | 30 µM
9 | O=C1N=c2c(Br)cccc2=C1c1[nH]c2ccccc2c1NO [7-bromanyl-3-[3-(oxidanylamino)-1H-indol-2-yl]indol-2-one] | 55.1 µM
10 | O=C1N=c2c(Cl)cccc2=C1c1[nH]c2ccccc2c1NO [7-chloro-3-[3-(hydroxyamino)-1H-indol-2-yl]-2-indolone] | 30 µM
11 | O=C1N=c2c(F)cccc2=C1c1[nH]c2ccccc2c1NO [7-fluoro-3-[3-(hydroxyamino)-1H-indol-2-yl]-2-indolone] | 30 µM
12 | O=C1NC(=S)N/C1=C1\C(=O)Nc2ccccc21 [(3Z)-3-(5-oxo-2-sulfanylideneimidazolidin-4-ylidene)-1H-indol-2-one] | 30 µM
